The target of data set [1] is T1, HpaBC (Escherichia coli, UniProt Q57160).
T1 construct: expressed in transfected cells; host or cells: E. coli strain harboring pZE-HpaBC
The experiment in a line: Whole-cell biocatalysis with E. coli cells over-expressing HpaBC. The data set is classed as cell-based. The note with it: for whole cell bioconversion of substrate into hydroxylated product: 500 mg/L substrate, about 3.3 g/L DCW, in 3 h. The method, then: The E. coli strain harboring pZE-HpaBC was first cultivated in 50 ml LB liquid medium at 37° C. till OD600 values reached 0.6. Then the cells were transferred to 30° C. and induced with 0.5 mM IPTG for additional 6 hours. After that, cells were harvested, re-suspended in 15 ml M9Y medium (0D600=9.6), and incubated in a rotary shaker at 300 rpm. […] When the substrate concentrations fell below 0.5 g/L, additional 1 g/L substrates were supplemented. […] Samples were taken every few hours and analyzed by HPLC.
Whole-cell biocatalysis is an efficient and economical way to scale up enzyme-catalyzed reactions.
T1 sequence (Q57160 whole entry): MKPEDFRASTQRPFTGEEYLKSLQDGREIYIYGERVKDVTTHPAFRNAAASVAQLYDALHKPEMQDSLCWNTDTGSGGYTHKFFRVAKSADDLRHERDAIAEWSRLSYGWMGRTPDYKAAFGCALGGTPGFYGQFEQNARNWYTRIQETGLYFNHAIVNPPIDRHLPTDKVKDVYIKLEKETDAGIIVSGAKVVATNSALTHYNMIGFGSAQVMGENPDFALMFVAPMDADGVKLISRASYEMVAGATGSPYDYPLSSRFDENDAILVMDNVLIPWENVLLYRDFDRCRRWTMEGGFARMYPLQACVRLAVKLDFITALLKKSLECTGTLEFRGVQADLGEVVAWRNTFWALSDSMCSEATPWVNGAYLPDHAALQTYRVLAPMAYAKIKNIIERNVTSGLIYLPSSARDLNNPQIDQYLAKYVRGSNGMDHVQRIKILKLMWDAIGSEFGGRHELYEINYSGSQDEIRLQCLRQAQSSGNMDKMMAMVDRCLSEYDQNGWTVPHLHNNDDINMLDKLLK

Data set [2] has as its target T2, HpaBC (Escherichia coli, UniProt Q57160).
T2 sequence (Q57160 2-520): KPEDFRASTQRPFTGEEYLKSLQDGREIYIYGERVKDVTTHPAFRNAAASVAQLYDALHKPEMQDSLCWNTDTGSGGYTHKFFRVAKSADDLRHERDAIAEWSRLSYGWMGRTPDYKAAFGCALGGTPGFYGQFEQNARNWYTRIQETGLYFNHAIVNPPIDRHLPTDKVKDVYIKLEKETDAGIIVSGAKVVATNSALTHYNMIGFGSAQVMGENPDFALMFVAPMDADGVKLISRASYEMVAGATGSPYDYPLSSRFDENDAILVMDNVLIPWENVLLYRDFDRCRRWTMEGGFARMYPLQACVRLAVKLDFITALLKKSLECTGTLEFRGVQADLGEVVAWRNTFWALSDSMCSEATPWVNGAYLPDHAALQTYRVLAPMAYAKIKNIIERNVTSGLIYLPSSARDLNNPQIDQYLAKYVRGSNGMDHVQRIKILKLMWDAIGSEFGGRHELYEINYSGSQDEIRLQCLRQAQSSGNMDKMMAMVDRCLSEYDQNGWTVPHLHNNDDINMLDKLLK
Type of data set: biochemical. Conditions: for kcat: kcat=Vmax/[E]. The method, then: The E. coli strain was transformed with pZE-His7HpaB and pZE-His7HpaC separately. The fresh transformants were pre-inoculated in LB medium containing 100 μg/ml ampicillin and grown at 37° C. aerobically overnight. In the following day, the pre-inoculums were transferred into 50 ml of fresh LB medium at a ratio of 1:100. The cultures were cultivated at 37° C. till the OD600 values reached about 0.6 and then induced by 0.5 mM IPTG. […] The BCA kit (Pierce Chemicals) was used to estimate protein concentrations. […] The HpaBC enzyme assays were carried out according to the protocol described by Louie et al. with minor modifications (Louie et al., 2003. Biochemistry (Mosc) 42(24):7509-17). The 1 ml reaction system contains KPi Buffer (20 mM, pH=7.0), FAD (10 μM), NADH (1 mM), HpaB (0.5 μM), HpaC (0.5 μM), substrates (from 10 to 1000 μM). […] The reaction rates were calculated according to the product formation and substrate consumption, which were measured by HPLC. Apparent kinetic parameters were determined by non-linear regression of the Michaelis-Menten equation using OriginPro8™.
We further investigated and compared the kinetic parameters of HpaBC towards its native substrate 4HPA and the 3 non-native substrates. To do these, a multi-histidine tag was fused to the N-terminus of HpaB and HpaC, which were subsequently over-expressed and purified from E. coli. The enzyme complex was reconsituted in vitro for enzyme assays (FIG. 5).

In data set [3] the target is T1, HpaBC. The experiment in a line: HpaBC substrates screening: feeding of E. coli strain over-expressing HpaBC. The data set is classed as cell-based. Conditions: 200 mg/L substrate, additional 10 hour incubation. The method, then: The E. coli strain harboring pZE-HpaBC was pre-inoculated into LB liquid medium containing ampicillin (100 μg/ml) and grown overnight at 37° C. Then 200 μl of the inoculum was transferred into 20 ml of fresh M9Y medium. The E. coli cells were grown at 37° C. till the OD600 values reached around 0.6 and then transferred to 30° C. and induced by 0.5 mM IPTG.
As the initial step towards examining the activity, we constructed a high-copy number plasmid co-expressing hpaB and hpaC (pZE-HpaBC) and introduced it into E. coli. The resulting strain was cultivated and induced with IPTG for enzyme expression for 3 hours, after which 200 mg/L of substrate was added into the cultures. After additional 10 hour incubation, we analyzed the cell-free broth by HPLC. […] We further used naringenin to explore the substrate tolerance limit of HpaBC. […] The three new peaks were collected from HPLC for mass spectrum analysis.

The target of data set [4] is T1, HpaBC. The note with it: from p-coumaric acid; cited from earlier work.
Substrate in data set [5]: Oc1ccc(/C=C/c2cc(O)cc(O)c2)cc1
The experiment in a line: purified protein, by the assay type. Conditions: other: apparent, HpaB 0.5 μM, HpaC 0.5 μM, pH 7.0, 30° C.

Substrate in data set [6]: O=c1ccc2ccc(O)cc2o1
The experiment in a line: purified protein, by the assay type. Conditions: other: apparent, HpaB 0.5 μM, HpaC 0.5 μM, pH 7.0, 30° C.

Values joined by “and” are separate entries in the source; they are usually repeats but may differ in a detail not shown here. Identical values can stand only once. Like-named read-outs stand apart in the source and are kept apart here.

Take `Oc1ccc(/C=C/c2cc(O)cc(O)c2)cc1` [Resveratrol, 3,5,4′-trihydroxy-trans-stilbene]: the “whole cell bioconversion of substrate into hydroxylated product” value in data set [1] is listed as “completely converted”. Besides, the kcat in data set [2] (apparent, pH 7.0, 30° C.) turned out to be 0.0933 s⁻¹. In data set [3], the “substrate consumption in culture (HPLC)” value was “completely consumed”.

For the molecule `O=c1ccc2ccc(O)cc2o1` [Umbelliferone, umbelliferone], the “whole cell bioconversion of substrate into hydroxylated product” value in data set [1] was “completely converted”. In data set [1] (umbelliferone vs resveratrol), the “whole-cell conversion efficiency relative to resveratrol” value is listed as “about 3 fold”. The kcat in data set [2] (apparent, pH 7.0, 30° C.) was 0.0667 s⁻¹. Besides, the “substrate consumption in culture (HPLC)” value in data set [3] is “completely consumed”.

In the case of `O=C1C[C@@H](c2ccc(O)c(O)c2)Oc2cc(O)cc(O)c21` (single isomer, unassigned) [eriodictyol], the product generated in data set [1] (150 mg/L naringenin fed, 10 h) was 16.7 mg/L and 58 μM.

With `O=C1C[C@@H](c2ccc(O)cc2)Oc2cc(O)cc(O)c21` [naringenin], the “activity of HpaBC towards substrate” value in data set [2] (kinetic parameters not determined) is on record as “low activity”. For the same molecule, the “substrate consumption in culture (HPLC)” value in data set [3] is reported as “majority of naringenin was left unconverted”.

Turning to `O=C(O)Cc1ccc(O)cc1` [4-HPA, 4-hydroxyphenylacetate, reference compound], the Michaelis-Menten constant (Km) in data set [2] (apparent, HpaB 0.5 μM, HpaC 0.5 μM, pH 7.0, 30° C.) is 18.4 µM. For the same molecule, the kcat in data set [2] (apparent, pH 7.0, 30° C.) worked out at 1.08 ± 0.015 s⁻¹; in data set [2] (apparent, pH 7.0, 30° C., listed as 4HPA), 1.08 s⁻¹.

With `O=C(O)/C=C/c1ccc(O)c(O)c1` [caffeic acid], the “caffeic acid production titer” value in data set [4] is 3.82 g/L and 21.2 mM.

Consider `O=c1ccc2cc(O)c(O)cc2o1` (single isomer, unassigned) [esculetin], for which the maximum product titer in data set [1] (end of 18 h, fed substrate, 1.5 mM ascorbic acid) was 2.7 g/L and 15.5 mM. Moreover, the “highest hydroxylation rate (product formation)” value in data set [1] (initial 2 h, 1.5 g/L initial substrate) worked out at 298.1 μM/h/OD.

B1: HpaBC (Escherichia coli) (protein)
chain: KPEDFRASTQRPFTGEEYLKSLQDGREIYIYGERVKDVTTHPAFRNAAASVAQLYDALHKPEMQDSLCWNTDTGSGGYTHKFFRVAKSADDLRHERDAIAEWSRLSYGWMGRTPDYKAAFGCALGGTPGFYGQFEQNARNWYTRIQETGLYFNHAIVNPPIDRHLPTDKVKDVYIKLEKETDAGIIVSGAKVVATNSALTHYNMIGFGSAQVMGENPDFALMFVAPMDADGVKLISRASYEMVAGATGSPYDYPLSSRFDENDAILVMDNVLIPWENVLLYRDFDRCRRWTMEGGFARMYPLQACVRLAVKLDFITALLKKSLECTGTLEFRGVQADLGEVVAWRNTFWALSDSMCSEATPWVNGAYLPDHAALQTYRVLAPMAYAKIKNIIERNVTSGLIYLPSSARDLNNPQIDQYLAKYVRGSNGMDHVQRIKILKLMWDAIGSEFGGRHELYEINYSGSQDEIRLQCLRQAQSSGNMDKMMAMVDRCLSEYDQNGWTVPHLHNNDDINMLDKLLK
Take B1: in data set [5], the Km was 145.1 µM, the turnover number (kcat) was found to be 0.0933 s⁻¹ and the kcat/Km was found to be 643 M⁻¹ s⁻¹. Moreover, in data set [6], the Km was found to be 262.2 µM, the turnover number (kcat) turned out to be 0.0667 s⁻¹ and the kcat/Km stood at 254 M⁻¹ s⁻¹.

Source of the values: US10036047B2, “Methods for hydroxylating phenylpropanoids” (University of Georgia Research Foundation, Inc., priority 2013, dated 2018).
